pIC50: −log10 of the molar value.

This assay concerns Wnt pathway. As to the kind of experiment: Wnt activity reporter assay (SP5 promoter-luciferase in SW480 cells). The format is cell-based. Particulars: Homo sapiens, SP5 promoter firefly luciferase reporter, read-out: Wnt inhibition. An excerpt:
The above synthesized compounds were screened using the assay procedure for Wnt activity described below.
Reporter cell lines can be generated by stably transducing cells of cancer cell lines (e.g., colon cancer) with a lentiviral construct that include a wnt-responsive promoter driving expression of the firefly luciferase gene.
Lentiviral constructs can be made in which the SP5 promoter, a promoter having eight TCF/LEF binding sites derived from the SP5 promoter, is linked upstream of the firefly luciferase gene. The lentiviral constructs can also include a hygromycin resistance gene as a selectable marker. The SP5 promoter construct can be used to transduce SW480 cells, a colon cancer cell line having a mutated APC gene that generates a truncated APC protein, leading to de-regulated accumulation of β-catenin.
Cultured SW480 cells bearing a reporter construct can be distributed at approximately 10,000 cells per well into 96 well or 384 well plates. Compounds from a small molecule compound library can then be added to the wells in half-log dilutions using a ten micromolar top concentration. A series of control wells for each cell type receive only buffer and compound solvent. Twenty-four to forty hours after the addition of compound, reporter activity for luciferase can be assayed, for example, by addition of the BrightGlo luminescence reagent (Promega) and the Victor3 plate reader (Perkin Elmer). Readings can be normalized to DMSO only treated cells, and normalized activities can then be used in the IC50 calculations.
(In a reporter assay the amount or activity of a reporter protein is the signal.)
Take `O=C(Nc1cncc(-c2cnc3[nH]nc(-c4nc5c(-c6cccc(F)c6)cncc5[nH]4)c3c2)c1)C(F)(F)F` [Compound 1, 2,2,2-Trifluoro-N-(5-(3-(7-(3-fluorophenyl)-3H-imidazo[4,5-c]pyridin-2-yl)-1H-pyrazolo[3,4-b]pyridin-5-yl)pyridin-3-yl)acetamide]: the pIC50 was 8.22.
In the case of `CN1CCN(c2cncc(-c3cnc4[nH]nc(-c5nc6c(-c7cccc(F)c7)cncc6[nH]5)c4c3)c2)CC1` [Compound 4, 3-(7-(3-Fluorophenyl)-3H-imidazo[4,5-c]pyridin-2-yl)-5-(5-(4-methylpiperazin-1-yl)pyridin-3-yl)-1H-pyrazolo[3,4-b]pyridine], the pIC50 was 6.48.
As for `CN(C)CCNc1cncc(-c2cnc3[nH]nc(-c4nc5c(-c6cccc(F)c6)cncc5[nH]4)c3c2)c1` [Compound 6, N1-(5-(3-(7-(3-Fluorophenyl)-3H-imidazo[4,5-c]pyridin-2-yl)-1H-pyrazolo[3,4-b]pyridin-5-yl)pyridin-3-yl)-N2,N2-dimethylethane-1,2-diamine], the pIC50 is 6.26.
In the case of `CCNC(=O)c1cncc2[nH]c(-c3n[nH]c4ncc(-c5cccnc5)cc34)nc12` [Compound 8, N-Ethyl-2-(5-(pyridin-3-yl)-1H-pyrazolo[3,4-b]pyridin-3-yl)-3H-imidazo[4,5-c]pyridine-7-carboxamide] it was 5.08.
Regarding `Fc1cc(-c2cncc3[nH]c(-c4n[nH]c5ncc(-c6cccnc6)cc45)nc23)cc(N2CCOCC2)c1` [Compound 13, 4-(3-Fluoro-5-(2-(5-(pyridin-3-yl)-1H-pyrazolo[3,4-b]pyridin-3-yl)-3H-imidazo[4,5-c]pyridin-7-yl)phenyl)morpholine], the pIC50 was 6.76.
With `CC(C)N1CCN(c2cc(F)cc(-c3cncc4[nH]c(-c5n[nH]c6ncc(-c7cccnc7)cc56)nc34)c2)CC1` [Compound 15, 3-(7-(3-Fluoro-5-(4-isopropylpiperazin-1-yl)phenyl)-3H-imidazo[4,5-c]pyridin-2-yl)-5-(pyridin-3-yl)-1H-pyrazolo[3,4-b]pyridine], the pIC50 is 6.49.
As to `Fc1cc(CN2CCCC2)cc(-c2cncc3[nH]c(-c4n[nH]c5ncc(-c6cccnc6)cc45)nc23)c1` [Compound 16, 3-(7-(3-Fluoro-5-(pyrrolidin-1-ylmethyl)phenyl)-3H-imidazo[4,5-c]pyridin-2-yl)-5-(pyridin-3-yl)-1H-pyrazolo[3,4-b]pyridine], the pIC50 is 6.42.
Regarding `CC(C)N(Cc1cc(F)cc(-c2cncc3[nH]c(-c4n[nH]c5ncc(-c6cccnc6)cc45)nc23)c1)C(C)C` [Compound 17, N-(3-Fluoro-5-(2-(5-(pyridin-3-yl)-1H-pyrazolo[3,4-b]pyridin-3-yl)-3H-imidazo[4,5-c]pyridin-7-yl)benzyl)-N-isopropylpropan-2-amine], the pIC50 was 6.26.
As for `CC1CCN(c2cc(F)cc(-c3cncc4[nH]c(-c5n[nH]c6ncc(-c7cccnc7)cc56)nc34)c2)CC1` [Compound 19, 3-(7-(3-Fluoro-5-(4-methylpiperidin-1-yl)phenyl)-3H-imidazo[4,5-c]pyridin-2-yl)-5-(pyridin-3-yl)-1H-pyrazolo[3,4-b]pyridine], the pIC50 was 6.30.
For the compound `CN(C)Cc1cncc(-c2cnc3[nH]nc(-c4nc5c(-c6cncc(F)c6)cncc5[nH]4)c3c2)c1` [Compound 20, 1-(5-(3-(7-(5-Fluoropyridin-3-yl)-3H-imidazo[4,5-c]pyridin-2-yl)-1H-pyrazolo[3,4-b]pyridin-5-yl)pyridin-3-yl)-N,N-dimethylmethanamine], the pIC50 was 5.00.
`Fc1cc(-c2cncc3[nH]c(-c4n[nH]c5ncc(-c6cccnc6)cc45)nc23)cc(N2CCNCC2)c1` [Compound 21, 3-(7-(3-Fluoro-5-(piperazin-1-yl)phenyl)-3H-imidazo[4,5-c]pyridin-2-yl)-5-(pyridin-3-yl)-1H-pyrazolo[3,4-b]pyridine]: the pIC50 was 6.78.
As for `CN(C)Cc1cncc(-c2cnc3[nH]nc(-c4nc5c(-c6cc(F)cc(CNS(C)(=O)=O)c6)cncc5[nH]4)c3c2)c1` [Compound 22, N-(3-(2-(5-(5-((Dimethylamino)methyl)pyridin-3-yl)-1H-pyrazolo[3,4-b]pyridin-3-yl)-3H-imidazo[4,5-c]pyridin-7-yl)-5-fluorobenzyl)methanesulfonamide], the pIC50 is 7.49.
Regarding `Fc1cncc(-c2cncc3[nH]c(-c4n[nH]c5ncc(-c6cccnc6)cc45)nc23)c1` [Compound 23, 3-(7-(5-Fluoropyridin-3-yl)-3H-imidazo[4,5-c]pyridin-2-yl)-5-(pyridin-3-yl)-1H-pyrazolo[3,4-b]pyridine], the pIC50 was 5.00.
`CN(C)Cc1cncc(-c2cnc3[nH]nc(-c4nc5c(-c6cc(F)cc(N7CCOCC7)c6)cncc5[nH]4)c3c2)c1` [Compound 24, 1-(5-(3-(7-(3-Fluoro-5-morpholinophenyl)-3H-imidazo[4,5-c]pyridin-2-yl)-1H-pyrazolo[3,4-b]pyridin-5-yl)pyridin-3-yl)-N,N-dimethylmethanamine]: the pIC50 is 7.68.
In the case of `CN(C)Cc1cncc(-c2cnc3[nH]nc(-c4nc5c(-c6cncc(C(F)(F)F)c6)cncc5[nH]4)c3c2)c1` [Compound 25, N,N-Dimethyl-1-(5-(3-(7-(5-(trifluoromethyl)pyridin-3-yl)-3H-imidazo[4,5-c]pyridin-2-yl)-1H-pyrazolo[3,4-b]pyridin-5-yl)pyridin-3-yl)methanamine] it was 5.00; in that of `Fc1cccc(-c2cncc3[nH]c(-c4n[nH]c5ncc(-c6cncc(CN7CCCC7)c6)cc45)nc23)c1` [Compound 27, 3-(7-(3-Fluorophenyl)-3H-imidazo[4,5-c]pyridin-2-yl)-5-(5-(pyrrolidin-1-ylmethyl)pyridin-3-yl)-1H-pyrazolo[3,4-b]pyridine], 5.75.
For `Fc1cccc(-c2cncc3[nH]c(-c4n[nH]c5ncc(-c6cncc(CN7CCCCC7)c6)cc45)nc23)c1` [Compound 28, 3-(7-(3-Fluorophenyl)-3H-imidazo[4,5-c]pyridin-2-yl)-5-(5-(piperidin-1-ylmethyl)pyridin-3-yl)-1H-pyrazolo[3,4-b]pyridine], the pIC50 is 6.14.
The figure for `O=C(Nc1cncc(-c2cnc3[nH]nc(-c4nc5c(-c6cccc(F)c6)cncc5[nH]4)c3c2)c1)C1CC1` [Compound 114, N-(5-(3-(7-(3-Fluorophenyl)-3H-imidazo[4,5-c]pyridin-2-yl)-1H-pyrazolo[3,4-b]pyridin-5-yl)pyridin-3-yl)cyclopropanecarboxamide] is 7.96.
`O=C(Cc1ccccc1)Nc1cncc(-c2cnc3[nH]nc(-c4nc5c(-c6ccc(F)cc6)cncc5[nH]4)c3c2)c1` [Compound 128, N-(5-(3-(7-(4-Fluorophenyl)-3H-imidazo[4,5-c]pyridin-2-yl)-1H-pyrazolo[3,4-b]pyridin-5-yl)pyridin-3-yl)-2-phenylacetamide]: the pIC50 is 7.05.
Consider `Fc1ccc(-c2cncc3[nH]c(-c4n[nH]c5ncc(-c6cncc(CNCC7CCCC7)c6)cc45)nc23)cc1` [Compound 142, 1-Cyclopentyl-N-((5-(3-(7-(4-fluorophenyl)-3H-imidazo[4,5-c]pyridin-2-yl)-1H-pyrazolo[3,4-b]pyridin-5-yl)pyridin-3-yl)methyl)methanamine], for which the pIC50 is 6.19.
Regarding `CCCC(=O)Nc1cncc(-c2cnc3[nH]nc(-c4nc5c(-c6ccccc6F)cncc5[nH]4)c3c2)c1` [Compound 158, N-(5-(3-(7-(2-Fluorophenyl)-3H-imidazo[4,5-c]pyridin-2-yl)-1H-pyrazolo[3,4-b]pyridin-5-yl)pyridin-3-yl)butyramide], the pIC50 was 8.10.
On to `CN(C)Cc1cncc(-c2cnc3[nH]nc(-c4nc5c(-c6cccnc6)cncc5[nH]4)c3c2)c1` [Compound 176, N,N-Dimethyl-1-(5-(3-(7-(pyridin-3-yl)-3H-imidazo[4,5-c]pyridin-2-yl)-1H-pyrazolo[3,4-b]pyridin-5-yl)pyridin-3-yl)methanamine], for which the pIC50 was 5.81.
Consider `c1cncc(-c2cncc3[nH]c(-c4n[nH]c5ncc(-c6cncc(CN7CCCCC7)c6)cc45)nc23)c1` [Compound 178, 5-(5-(Piperidin-1-ylmethyl)pyridin-3-yl)-3-(7-(pyridin-3-yl)-3H-imidazo[4,5-c]pyridin-2-yl)-1H-pyrazolo[3,4-b]pyridine], for which the pIC50 is 6.41.
The figure for `CC(C)(C)CC(=O)Nc1cncc(-c2cnc3[nH]nc(-c4nc5c(-c6cccnc6)cncc5[nH]4)c3c2)c1` [Compound 179, 3,3-Dimethyl-N-(5-(3-(7-(pyridin-3-yl)-3H-imidazo[4,5-c]pyridin-2-yl)-1H-pyrazolo[3,4-b]pyridin-5-yl)pyridin-3-yl)butanamide] is 5.84; for `O=C(Nc1cncc(-c2cnc3[nH]nc(-c4nc5c(-c6cccnc6)cncc5[nH]4)c3c2)c1)C1CCCCC1` [Compound 185, N-(5-(3-(7-(Pyridin-3-yl)-3H-imidazo[4,5-c]pyridin-2-yl)-1H-pyrazolo[3,4-b]pyridin-5-yl)pyridin-3-yl)cyclohexanecarboxamide] it is 5.88; for `Cc1ccncc1-c1cnc2[nH]nc(-c3nc4c(-c5ccncc5)cncc4[nH]3)c2c1` [Compound 192, 5-(4-Methylpyridin-3-yl)-3-(7-(pyridin-4-yl)-3H-imidazo[4,5-c]pyridin-2-yl)-1H-pyrazolo[3,4-b]pyridine] it is 5.98.

(Values after patent US10071086B2, “1H-pyrazolo[3,4-b]pyridines and therapeutic uses thereof” (Samumed, LLC, priority 2012, dated 2018).)
